Laboratory results: ChEMBL document CHEMBL5614440, “Development of Novel Indole-Based Covalent Inhibitors of TEAD as Potential Antiliver Cancer Agents” (J Med Chem, 2024)

How the values were obtained:
Huh-7 = test: Antiproliferative activity against human Huh-7 cells incubated for 3 days by CCK8 assay; format: functional, cell-based; conditions: Huh-7, 72 h
HEK293T = test: Inhibition of TEAD (unknown origin) expressed in HEK293T cells transfected with 8xGTIIC-luciferase at 10 uM by dual luciferase reporter assay relative to control; format: cell-based; conditions: Homo sapiens

Row | Structure (SMILES) | IC50 (Huh-7) [µM] | inhibition (HEK293T) [%]
1 | O=C(CCl)NCc1c[nH]c2cc(Cl)c(OCc3ccc4ccccc4c3)cc12 | 5.7 | 67.4
2 | C=CC(=O)NCc1c[nH]c2cc(Cl)c(OCc3cccc4ccccc34)cc12 | 14.4 | 10.6
3 | COc1cc2[nH]cc(C(=O)CCl)c2cc1OCc1ccccc1 | 3.8 | 53.7
4 | O=C(CCl)c1c[nH]c2ccc(OCc3ccccc3)cc12 | 10.5 | 20.5
5 | COc1cc2[nH]cc(C(=O)CCl)c2cc1OCc1cccc2ccccc12 | 2.5 | 64.5
6 | O=C(CCl)NCc1c[nH]c2cc(Cl)c(OCc3cccc4ccccc34)cc12 | 0.8 | 81.5

Continued, in another order:

Row | IC50 (Huh-7) [µM] | Structure (SMILES) | inhibition (HEK293T) [%]
7 | 16.9 | O=C(CCl)c1c[nH]c2cc(Cl)c(OCc3ccc(C(F)(F)F)cc3)cc12 | 
8 | 1.6 | O=C(CCl)c1c[nH]c2cc(Cl)c(OCc3cccc4ccccc34)cc12 | 69.4
9 | 68.7 | N#C/C(=C\c1c[nH]c2cc(Cl)c(OCc3ccc4ccccc4n3)cc12)C(N)=O | 
10 | 5.2 | N#C/C(=C\c1c[nH]c2cc(Cl)c(OCc3cccc(C(F)(F)F)c3)cc12)C(N)=O | 59.7
11 | > 50 | C=CC(=O)NCc1c[nH]c2cc(Cl)c(OCc3ccccc3)cc12 | 
12 | 2 | C=C(CN(C)C)C(=O)NCc1c[nH]c2cc(Cl)c(OCc3ccccc3)cc12 | 71.8
13 | 30.2 | C=CC(=O)NCc1c[nH]c2cc(Cl)c(OCc3ccc4ccccc4c3)cc12 | 1.5
14 | 5.3 | N#C/C(=C\c1c[nH]c2cc(Cl)c(OCC3CCC(F)(F)CC3)cc12)C(N)=O | 60.1
